In patent publication US9670162B2, “Mitochondrial aldehyde dehyrogenase-2 modulators and methods of use thereof” (The Board of Trustees of the Leland Stanford Junior …, priority 2013, dated 2017):
Where a chain is given by its changes, count along the chain named.

Assays:
human ALDH2 wild type = molecular target: T1, human ALDH2 wild type (Homo sapiens, UniProt P05091); test: ALDH2 enzymatic assay (NADH at 340 nm), recombinant wild type enzyme; assay type: biochemical; parameters: key: −: no activation or inhibition; +: activation less than control 1; ++: activation similar to control 1, within 10%; +++: activation more than control 1 and less than control (compound 161); ++++: activation similar to compound 161, within 10%; conditions: activation relative to benchmarks control 1 and compound 161
T1 construct: His-tag (pTrcHis vector) (N); made in house; host or cells: E. coli BL21
T1 sequence (P05091 18-517): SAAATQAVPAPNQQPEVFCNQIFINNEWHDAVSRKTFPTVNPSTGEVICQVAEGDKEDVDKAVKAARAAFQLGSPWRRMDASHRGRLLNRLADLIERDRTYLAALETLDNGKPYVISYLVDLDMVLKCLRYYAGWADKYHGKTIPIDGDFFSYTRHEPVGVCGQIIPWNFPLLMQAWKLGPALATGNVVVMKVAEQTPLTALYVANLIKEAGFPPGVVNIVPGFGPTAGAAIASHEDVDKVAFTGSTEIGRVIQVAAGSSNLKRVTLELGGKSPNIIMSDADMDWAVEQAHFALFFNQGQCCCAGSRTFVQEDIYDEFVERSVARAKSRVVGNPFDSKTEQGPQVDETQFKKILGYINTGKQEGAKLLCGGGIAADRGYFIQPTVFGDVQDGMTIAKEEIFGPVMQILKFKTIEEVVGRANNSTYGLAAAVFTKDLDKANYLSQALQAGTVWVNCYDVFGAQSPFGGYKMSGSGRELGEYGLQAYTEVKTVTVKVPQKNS
Source text: (§1) ALDH2 catalyzes the oxidative reaction of substrate acetaldehyde to acetic acid using NAD^+ as a cofactor. Enzymatic activity, or catalytic rate, of aldehyde dehydrogenase (ALDH2) can be measured spectrophotometrically at UV wavelength λ340 nm by the accumulation of reduced product NADH derived from NAD^+. […] This method is well-established in the literature [e.g. D. K. Rex, W. F. Bosron, J. E. Smialek, T. K. Li, Alcohol Clin Exp Res 9, 147 (1985)].
(§2) Full-length wild type human ALDH2 cDNA was purchased from ATCC (No. MGC-1806. GenBank ID: BC002967). The 18-amino acid mitochondria transport signal sequence was removed by PCR and cloned into the NheI/HindIII sites of a His-tag vector, pTrcHis, using standard molecular cloning techniques. The human ALDH2* cDNA construct containing the Asian E487K mutation was obtained by site-directed mutagenesis to create the E487K substitution of the wild type ALDH2. Both human clones were designed to express a recombinant protein with the His-tag at the N-terminus of the protein. For the co-expression experiments of human ALDH2 wild type and ALDH2*2 heterotetramers, a wild type ALDH2 gene and a ALDH2 E487K gene were inserted separately into the two multiple cloning sites of pETDuet-1 vector. (Novagen, Calif., USA). All the vectors were transformed into BL21 E. coli host cells and subjected to 0.5 mM IPTG induction for protein expression at 30° C. Purifications of the recombinant proteins by affinity nickel columns (HisTrap, GE Healthy Science, USA) were carried out using standard protocols according to manufacturer's instructions (Novagen, USA).
(§3) Control 1 and compound 161 are used as benchmarks and the symbols have the following representation: […]

[1] = molecular target: T2, human ALDH2*2 recombinant mutant enzyme (E487K) (Homo sapiens, UniProt P05091, E504K); test: ALDH2 enzymatic assay (NADH at 340 nm), recombinant mutant enzyme; assay type: biochemical; parameters: key: −: no activation or inhibition; +: activation less than control 1; ++: activation similar to control 1, within 10%; +++: activation more than control 1 and less than control (compound 161); ++++: activation similar to compound 161, within 10%; conditions: activation relative to benchmarks control 1 and compound 161
T2 construct: His-tag (pTrcHis vector) (N); made in house; host or cells: E. coli BL21
T2 sequence (P05091 18-517 E504K): T1 sequence (P05091 18-517) with E487K
Source text: as §1, §2, §3

ALDH2 (wild-type) (human ALDH2 wild type) | ALDH2 (mutant) [1] | Structure (SMILES)
+ | + | COc1ccc(CNC(=O)c2c(Cl)ccnc2OCC2CCCN2)cc1F (stereo not drawn) [Compound 204]
+ | + | COc1ccc(CNC(=O)c2c(Cl)ccnc2OCC2CCNC2)cc1F (stereo not drawn) [Compound 205]
++ | + | COc1ccc(CNC(=O)c2c(Cl)ccnc2Oc2ccccc2)cc1F [Compound 206]
++ | ++ | COc1ccc(CNC(=O)c2c(Cl)ccnc2SC)cc1F [Compound 213]
++ | ++ | CCSc1nccc(Cl)c1C(=O)NCc1ccc(OC)c(F)c1 [Compound 214]
++++ | +++ | CCCSc1nccc(Cl)c1C(=O)NCc1ccc(OC)c(F)c1 [Compound 215]
+ | + | COc1ccc(CNC(=O)c2c(Cl)ccnc2SC(C)C)cc1F [Compound 216]
+ | ++ | CCC(C)Sc1nccc(Cl)c1C(=O)NCc1ccc(OC)c(F)c1 (stereo not drawn) [Compound 217]
+ | + | COc1ccc(CNC(=O)c2c(Cl)ccnc2SCC(C)C)cc1F [Compound 218]
+ | + | COc1ccc(CNC(=O)c2c(Cl)ccnc2S(C)(=O)=O)cc1F [Compound 219]
+ | + | CCS(=O)(=O)c1nccc(Cl)c1C(=O)NCc1ccc(OC)c(F)c1 [Compound 220]
+ | + | CCCS(=O)(=O)c1nccc(Cl)c1C(=O)NCc1ccc(OC)c(F)c1 [Compound 221]
+ | + | COc1ccc(CNC(=O)c2c(Cl)ccnc2S(=O)(=O)C(C)C)cc1F [Compound 222]
+ | + | CCC(C)S(=O)(=O)c1nccc(Cl)c1C(=O)NCc1ccc(OC)c(F)c1 (stereo not drawn) [Compound 223]
+ | + | COc1ccc(CNC(=O)c2c(Cl)ccnc2S(=O)(=O)CC(C)C)cc1F [Compound 224]
+ | + | COc1ccc(CNC(=O)c2c(C(F)(F)F)ccnc2OCC2CC2)cc1F [Compound 225]
+ | + | COc1ccc(CNC(=O)c2c(C(F)(F)F)ccnc2OCC(C)C)cc1F [Compound 226]
+ | + | COc1ccc(CNC(=O)c2c(C(F)(F)F)ccnc2OC(C)C)cc1F [Compound 227]
+ | + | CCC(CC)Oc1nccc(C(F)(F)F)c1C(=O)NCc1ccc(OC)c(F)c1 [Compound 228]
+ | + | COc1ccc(CNC(=O)c2c(C(F)(F)F)ccnc2OCC2CCC2)cc1F [Compound 229]
+ | + | COc1ccc(CNC(=O)c2c(C(F)(F)F)ccnc2OCC2CCCC2)cc1F [Compound 230]
+ | ++ | COc1ccc(CNC(=O)c2c(C)ccnc2OCC2CC2)cc1F [Compound 231]
+ | + | COc1ccc(CNC(=O)c2c(C)ccnc2OCC(C)C)cc1F [Compound 232]
+ | + | COc1ccc(CNC(=O)c2c(C)ccnc2OC(C)C)cc1F [Compound 233]

ALDH2 (wild-type) (human ALDH2 wild type) | ALDH2 (mutant) [1] | Structure (SMILES)
+ | + | CCC(CC)Oc1nccc(C)c1C(=O)NCc1ccc(OC)c(F)c1 [Compound 234]
+ | + | COc1ccc(CNC(=O)c2c(C)ccnc2OCC2CCC2)cc1F [Compound 235]
+ | + | COc1ccc(CNC(=O)c2c(C)ccnc2OCC2CCCC2)cc1F [Compound 236]
+ | + | COc1ccc(CNC(=O)c2c(C)ccnc2OCC2CCNC2)cc1F (stereo not drawn) [Compound 237]
+ | + | COc1ccc(CNC(=O)c2c(C)ccnc2OC2CCC2)cc1F [Compound 238]
++ | +++ | COc1ccc(CNC(=O)c2c(Cl)cncc2OCC2CC2)cc1F [Compound 239]
+ | ++ | COc1ccc(CNC(=O)c2c(Cl)cncc2OCC(C)C)cc1F [Compound 240]
++ | + | O=C(NCc1ccc2c(c1)CCCO2)c1c(Cl)ccnc1OCC1CC1 [Compound 244]
+ | +++ | O=C(NCc1ccc2c(c1)CCO2)c1c(Cl)ccnc1OCC1CC1 [Compound 245]
+ | ++ | COc1ncc(CNC(=O)c2c(Cl)ccnc2OCC2CC2)cc1F [Compound 246]
− | − | COc1ccc(CN(C)C(=O)c2c(Cl)ccnc2OCC2CC2)cc1F [Compound 247]
− | − | O=C(NCc1ccc(O)c(F)c1)c1c(Cl)ccnc1OCC1CC1 [Compound 248]
+ | + | COc1ccc(C(C)NC(=O)c2c(Cl)ccnc2OCC2CC2)cc1F (stereo not drawn) [Compound 249]
+ | + | COc1ccc(CNC(=O)c2c(Cl)ccnc2CCC(C)C)cc1F [Compound 250]
+ | + | COc1ccc(CNC(=O)c2c(OC)ccnc2OCC2CC2)cc1F [Compound 251]
+ | + | COc1c(F)cc(CNC(=O)c2c(Cl)ccnc2OCC(C)C)cc1F [Compound 252]
+ | + | CS(=O)(=O)c1ccc(CNC(=O)c2c(Cl)ccnc2OCC2CC2)cc1F [Compound 253]
+ | + | O=C(NCc1ccc(=O)[nH]c1)c1c(Cl)ccnc1OCC1CC1 [Compound 254]
+ | + | COc1ccc(CNC(=O)c2c(Cl)ccnc2OCC2CC2)cn1 [Compound 255]
+ | + | COc1ccc(CNC(=O)c2c(Cl)ccnc2OCC2CC2)cc1C [Compound 256]
+ | + | O=C(NCc1ccc2occc2c1)c1c(Cl)ccnc1OCC1CC1 [Compound 257]
+ | − | O=C1OCc2cc(CNC(=O)c3c(Cl)ccnc3OCC3CC3)ccc21 [Compound 258]
+ | + | O=C(NCc1ccc2ncoc2c1)c1c(Cl)ccnc1OCC1CC1 [Compound 259]
+ | − | O=C(NCc1ccc2ocnc2c1)c1c(Cl)ccnc1OCC1CC1 [Compound 260]
